Results published in patent US20260347373A1, “HETEROCYCLIC COMPOUNDS, COMPOSITIONS THEREOF, AND METHODS OF TREATMENT THEREWITH” (BeOne Medicines I GmbH, priority 2023, published 2026).
Where a name gives a salt, the structure may show the parent alone. Read-outs that look alike come from different tables or passages of the source.

What was measured:
[1] = molecular target: WT KRAS (Homo sapiens, UniProt P01116); assay: KRAS WT Probe Displacement Assay (TR-FRET, GDP-loaded); format: binding
Description: (§1) The synthetic routes of probe 1 and 2, which have been disclosed in PCT/CN2022/070676, are hereby incorporated herein.

[2] = molecular target: KRAS G12D (Homo sapiens, UniProt P01116, G12D); assay: KRAS G12D Probe Displacement Assay (TR-FRET, GDP-loaded); format: binding
Sequence of KRAS G12D (P01116 1-188 isoform P01116-2 G12D): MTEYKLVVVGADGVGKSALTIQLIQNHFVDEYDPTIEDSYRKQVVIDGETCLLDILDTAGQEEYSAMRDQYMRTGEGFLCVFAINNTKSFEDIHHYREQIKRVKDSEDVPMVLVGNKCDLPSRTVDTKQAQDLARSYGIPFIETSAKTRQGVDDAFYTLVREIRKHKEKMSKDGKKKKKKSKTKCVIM
Description: as §1

[3] = KRAS WT, read-out: KRAS^WT Probe Displacement Assay IC50
[4] = KRAS G12D, read-out: KRAS^G12D Probe Displacement Assay IC50

Sequence of WT KRAS (P01116 1-188 isoform P01116-2): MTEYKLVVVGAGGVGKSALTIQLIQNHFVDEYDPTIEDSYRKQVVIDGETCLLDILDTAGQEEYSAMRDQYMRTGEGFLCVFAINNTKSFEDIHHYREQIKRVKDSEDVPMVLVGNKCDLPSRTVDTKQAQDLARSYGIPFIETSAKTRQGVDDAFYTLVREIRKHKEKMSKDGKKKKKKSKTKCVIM

Nc1cc(Cl)c(C(F)(F)F)c(-c2nc3c4c(nc(OCC5(CN6CCC(=CF)CC6)CC5)nc4c2F)N2C[C@H]4CC[C@H](N4)[C@H]2CCO3)c1 [Example 156, 3-chloro-5-((6aR,7S,10R)-1-fluoro-13-((1-((4-(fluoromethylene)piperidin-1-yl)methyl)cyclopropyl)methoxy)-5,6,6a,7,8,9,10,11-octahydro-4-oxa-3,11a,12,14,15-pentaaza-7,10-methanocyclohepta[4,5]cycloocta [1,2,3-de]naphthalen-2-yl)-4-(trifluoromethyl)aniline]
IC50 [1, 3]: 0.3 to 3 nM
IC50 [2, 4]: < 0.3 nM

Cc1cc(N)cc(-c2nc3c4c(nc(OCC5(CN6CCC6)CC5(F)F)nc4c2F)N2C[C@H]4CC[C@H](N4)[C@H]2CCO3)c1C(F)(F)F (single isomer, unassigned) [Example 57]
IC50 [1, 3]: 3 to 1000 nM
IC50 [2, 4]: 0.3 to 3 nM

Cc1cc(N)cc(-c2nc3c4c(nc(O[C@@H](C)[C@@H]5CC6(CN5C)CC6(F)F)nc4c2F)N2C[C@H]4CC[C@H](N4)[C@H]2CCO3)c1C(F)(F)F (single isomer, unassigned) [Example 224]
IC50 [1, 3]: 3 to 1000 nM
IC50 [2, 4]: < 0.3 nM

Cc1cc(N)cc(-c2nc3c4c(nc(OCC5(CN6CCC(OC(F)(F)F)CC6)CC5)nc4c2F)N2C[C@H]4CC[C@H](N4)[C@H]2CCO3)c1C(F)(F)F [Example 177, 3-((6aR,7S,10R)-1-fluoro-13-((1-((4-(trifluoromethoxy)piperidin-1-yl)methyl)cyclopropyl)methoxy)-5,6,6a,7,8,9,10,11-octahydro-4-oxa-3,11a,12,14,15-pentaaza-7,10-methanocyclohepta[4,5]cycloocta[1,2,3-de]naphthalen-2-yl)-5-methyl-4-(trifluoromethyl)aniline]
IC50 [1, 3]: 0.3 to 3 nM
IC50 [2, 4]: < 0.3 nM

Cc1cc(N)cc(-c2nc3c4c(nc(OCC5(CN6CCCC(C(F)(F)F)C6)CC5)nc4c2F)N2C[C@H]4CC[C@H](N4)[C@H]2CCO3)c1C(F)(F)F (stereo partly drawn) [Example 118, 3-((6aR,7S,10R)-1-fluoro-13-((1-((3-(trifluoromethyl)piperidin-1-yl)methyl)cyclopropyl)methoxy)-5,6,6a,7,8,9,10,11-octahydro-4-oxa-3,11a,12,14,15-pentaaza-7,10-methanocyclohepta [4,5]cycloocta [1,2,3-de]naphthalen-2-yl)-5-methyl-4-(trifluoromethyl)aniline]
IC50 [1, 3]: 3 to 1000 nM
IC50 [2, 4]: < 0.3 nM

Cc1cc(N)cc(-c2nc3c4c(nc(OCC5(CN6CCn7cncc7C6)CC5)nc4c2F)N2C[C@H]4CC[C@H](N4)[C@H]2CCO3)c1C(F)(F)F [Example 108, 3-((6aR,7S,10R)-13-((1-((5,6-dihydroimidazo [1,5-a]pyrazin-7(8H)-yl)methyl)cyclopropyl)methoxy)-1-fluoro-5,6,6a,7,8,9, 10,11-octahydro-4-oxa-3,11a,12,14,15-pentaaza-7,10-methanocyclohepta [4,5]cycloocta [1,2,3-de]naphthalen-2-yl)-5-methyl-4-(trifluoromethyl)aniline]
IC50 [1, 3]: 3 to 1000 nM
IC50 [2, 4]: 0.3 to 3 nM

Cc1cc(N)cc(-c2nc3c4c(nc(OCC5(CN6C[C@H]7C[C@H]7[C@H]6CO)CC5)nc4c2F)N2C[C@H]4CC[C@H](N4)[C@H]2CCO3)c1C(F)(F)F [Example 98, ((1R,2S,5S)-3-((1-((((6aR,7S,10R)-2-(5-amino-3-methyl-2-(trifluoromethyl)phenyl)-1-fluoro-5,6,6a,7,8,9,10,11-octahydro-4-oxa-3,11a,12,14,15-pentaaza-7,10-methanocyclohepta [4,5]cycloocta[1,2,3-de]naphthalen-13-yl)oxy)methyl)cyclopropyl)methyl)-3-azabicyclo [3.1.0]hexan-2-yl) methanol]
IC50 [1, 3]: 3 to 1000 nM
IC50 [2, 4]: < 0.3 nM

Cc1cc(N)cc(-c2nc3c4c(nc(OCC5(CN6CC7C(C6)C7(F)F)CC5)nc4c2F)N2C[C@H]4CC[C@H](N4)[C@H]2CCO3)c1C(F)(F)F (stereo partly drawn) [Example 168, 3-((6aR,7S,10R)-13-((1-((6,6-difluoro-3-azabicyclo[3.1.0]hexan-3-yl)methyl)cyclopropyl)methoxy)-1-fluoro-5,6,6a,7,8,9,10,11-octahydro-4-oxa-3,11a,12,14,15-pentaaza-7,10-methanocyclohepta[4,5]cycloocta[1,2,3-de]naphthalen-2-yl)-5-methyl-4-(trifluoromethyl)aniline]
IC50 [1, 3]: 3 to 1000 nM
IC50 [2, 4]: < 0.3 nM

Cc1cc(N)cc(-c2nc3c4c(nc(N5CC(N(C)C)C5)nc4c2F)N2C[C@H]4CC[C@H](N4)[C@H]2CCO3)c1C(F)(F)F [Example 32, 1-((6aR,7S,10R)-2-(5-amino-3-methyl-2-(trifluoromethyl)phenyl)-1-fluoro-5,6,6a,7,8,9,10,11-octahydro-4-oxa-3,11a,12,14,15-pentaaza-7,10-methanocyclohepta[4,5]cycloocta [1,2,3-de]naphthalen-13-yl)-N,N-dimethylazetidin-3-amine]
IC50 [1, 3]: 3 to 1000 nM
IC50 [2, 4]: 0.3 to 3 nM

Cc1cc(N)cc(-c2nc3c4c(nc(OCC5(CN6CCC7(CCOCC7)C6)CC5)nc4c2F)N2C[C@H]4CC[C@H](N4)[C@H]2CCO3)c1C(F)(F)F [Example 101, 3-((6aR,7S,10R)-13-((1-((8-oxa-2-azaspiro[4.5]decan-2-yl)methyl)cyclopropyl)methoxy)-1-fluoro-5,6,6a, 7,8,9,10,11-octahydro-4-oxa-3,11a,12,14,15-pentaaza[7,10]methanocyclohepta [4,5]cycloocta[1,2,3-de]naphthalen-2-yl)-5-methyl-4-(trifluoromethyl) aniline formate]
IC50 ([1]; KRAS^WT Probe Displacement Assay IC50, KRAS WT): 3 to 1000 nM
IC50 ([2]; KRAS^G12D Probe Displacement Assay IC50, KRAS G12D): < 0.3 nM

Cc1cc(N)cc(-c2nc3c4c(nc(OCC5(CN6CC7CC6CC7(F)F)CC5)nc4c2F)N2C[C@H]4CC[C@H](N4)[C@H]2CCO3)c1C(F)(F)F [Example 174, 3-((6aR,7S,10R)-13-((1-((5,5-difluoro-2-azabicyclo[2.2.1]heptan-2-yl)methyl)cyclopropyl)methoxy)-1-fluoro-5,6,6a,7,8,9,10,11-octahydro-4-oxa-3,11a,12,14,15-pentaaza-7,10-methanocyclohepta[4,5]cycloocta[1,2,3-de]naphthalen-2-yl)-5-methyl-4-(trifluoromethyl)aniline]
IC50 [1, 3]: 3 to 1000 nM
IC50 [2, 4]: < 0.3 nM

Cc1cc(N)cc(-c2nc3c4c(nc(O[C@@H](C)[C@@H]5CCCN5C5COC5)nc4c2F)N2C[C@H]4CC[C@H](N4)[C@H]2CCO3)c1C(F)(F)F [Example 227, 3-((6aR,7S,10R)-1-fluoro-13-((S)-1-((S)-1-(oxetan-3-yl)pyrrolidin-2-yl)ethoxy)-5,6,6a,7,8,9,10,11-octahydro-4-oxa-3,11a,12,14,15-pentaaza-7,10-methanocyclohepta[4,5]cycloocta[1,2,3-de]naphthalen-2-yl)-5-methyl-4-(trifluoromethyl)aniline]
IC50 [1, 3]: 3 to 1000 nM
IC50 [2, 4]: < 0.3 nM

Cc1cc(N)cc(-c2nc3c4c(nc(OCC5(CN6CCC(=CF)CC6)CC5)nc4c2F)N2C[C@H]4CC[C@H](N4)[C@H]2CCO3)c1C(F)(F)F [Example 154, 3-((6aR,7S,10R)-1-fluoro-13-((1-((4-(fluoromethylene)piperidin-1-yl)methyl)cyclopropyl)methoxy)-5,6,6a,7,8,9,10,11-octahydro-4-oxa-3,11a,12,14,15-pentaaza-7,10-methanocyclohepta[4,5]cycloocta [1,2,3-de]naphthalen-2-yl)-5-methyl-4-(trifluoromethyl)aniline]
IC50 [1, 3]: 0.3 to 3 nM
IC50 [2, 4]: < 0.3 nM
